Results on one compound are retold here after article PMC4710668, “Bioactivation of food genotoxicants 5-hydroxymethylfurfural and furfuryl alcohol by sulfotransferases from human, mouse and rat: a comparative study” (Archives of Toxicology, 2014).

Test in all cases: HMF sulfoconjugation assay
Common to all, as to type: biochemical

One test deals with T1, rSult1b1 (Rattus norvegicus, UniProt P52847).
T1 construct: made in house; host or cells: Salmonella typhimurium TA1538 (cytosolic fraction, enzyme not purified)
The procedure: (§1) Cytosolic fractions containing individual SULT forms were prepared from transgenic S. typhimurium TA1538. Table S1 in the Supplementary Material provides a summary of the thirty SULTs used in the current study together with references describing the cloning of the respective S. typhimurium TA1538 strains. The expressed SULT forms are denoted with the prefixes h, m and r for human, mouse and rat enzymes, respectively. Bacteria were grown in Luria Broth medium containing ampicillin (100 µg/ml) by stirring for 8 h at 200 revolutions/min at 37 °C. The bacterial suspensions were centrifuged at 5,000 g for 10 min. The sediments were washed twice with 25 ml of 10 mM potassium phosphate buffer (pH 7.4)/50 mM potassium chloride (KCP buffer) and centrifuged again. The pellets were taken up in 800 µl KCP buffer and sonicated thrice for 15 s with 30 s pauses in between. The soluble fraction was attained by centrifuging for 1 h at 100,000 g. The supernatants (in the following termed cytosolic preparations) were frozen at −80 °C. The protein concentrations were determined according to a bicinchoninic acid (BCA) assay protocol. The SULT concentrations in the cytosolic preparations were estimated after electrophoretic separation and immunodetection using inclusion bodies of different SULT forms as standards (Teubner et al. [2007]). The preparation of SULT inclusion bodies and the immunodetection of SULTs is described in the Supplementary Material, which also contains a representative immunoblot of different amounts of rSult1a1standard and a cytosolic preparation of S. typhimurium expressing rSult1a1 (Fig. S1).
(§2) The reactions were conducted in mixtures of 100 µl containing 25–200 µg protein, 50 mM potassium phosphate buffer (pH 7.4), 5 mM MgCl2, 50 µM PAPS and different concentrations of HMF at 37 °C. Preliminary experiments ensured that measurements were recorded under ‘linear’ conditions, i.e., doubling of protein concentration or incubation time was doubling the amount of sulfate ester formed. The reactions were stopped after 30 min by adding 300 µl ice-cold 2-propanol, mixed and centrifuged at 15,000 g for 10 min.
(§3) SMF concentrations of the clear supernatants were analyzed by UPLC-MS/MS. The protocol was adapted from the quantification of SMF in plasma samples of HMF-treated mice (Monien et al. [2009]). In short, the supernatants were analyzed using a UPLC system (Waters) connected to a Quattro Premier XE tandem quadrupole mass spectrometer (Waters) using the negative electrospray ionization mode. Samples of 4 µl were injected into a HSS T3 column (1.8 µm, 2.1 × 100 mm; Waters) and eluted with an isocratic flow of 0.35 ml/min 10 mM ammonium acetate/methanol (95:5). The fragmentation reactions of SMF yielding two principal ions, the sulfate ion radical (m/z = 204.9 → 96.0) and the protonated sulfonate ion (m/z = 204.9 → 81.0) were monitored. The tune parameters were as follows: temperature of the electrospray source 120 °C; desolvation temperature 475 °C; desolvation gas nitrogen (800 l/h); cone gas nitrogen (100 l/h); collision gas argon (indicated cell pressure ~5 × 10^−3 mbar). For the fragmentation of SMF, collision energies were 20 and 23 eV for the transitions m/z = 204.9 → 81.0 and m/z = 204.9 → 96.0, respectively. The dwell time was set to 100 ms, and capillary voltage was set to 0.35 kV. The cone and RF1 lens voltages were 32 and 0.2 V, respectively. SMF was quantified using an external calibration line that was linear in the concentration range of 1.0 nM (4 fmol/injection) to 2,500 (10 pmol/injection) SMF (r ^2 ≥ 0.99). Data acquisition and handling were performed with MassLynx 4.1 software (Waters). The limit of detection (LOD) for this technique of 2.5 nM SMF has been reported (Monien et al. [2009]). In the current study, this corresponds to 10 fmol SMF per injection or a reaction rate of 0.5 pmol SMF/mg/min.

In another test the target is T2, hSULT2A1 (Homo sapiens, UniProt Q06520).
T2 construct: made in house; host or cells: Salmonella typhimurium TA1538 (cytosolic fraction, not purified)
T2 sequence (Q06520 1-285): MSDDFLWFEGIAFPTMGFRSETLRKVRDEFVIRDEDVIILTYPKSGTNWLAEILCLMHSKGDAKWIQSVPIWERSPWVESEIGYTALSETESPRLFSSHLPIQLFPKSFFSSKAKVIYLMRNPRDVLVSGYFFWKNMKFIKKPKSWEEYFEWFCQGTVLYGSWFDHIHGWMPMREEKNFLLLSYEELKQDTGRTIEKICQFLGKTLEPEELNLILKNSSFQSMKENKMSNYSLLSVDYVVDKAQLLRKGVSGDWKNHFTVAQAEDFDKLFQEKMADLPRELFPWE
The procedure:
as §1, §2, §3

In a further test the target is T3, rSult2b1 (Rattus norvegicus, UniProt Q29YR5).
T3 construct: made in house; host or cells: Salmonella typhimurium TA1538 (cytosolic fraction, enzyme not purified)
T3 sequence (Q29YR5 1-340): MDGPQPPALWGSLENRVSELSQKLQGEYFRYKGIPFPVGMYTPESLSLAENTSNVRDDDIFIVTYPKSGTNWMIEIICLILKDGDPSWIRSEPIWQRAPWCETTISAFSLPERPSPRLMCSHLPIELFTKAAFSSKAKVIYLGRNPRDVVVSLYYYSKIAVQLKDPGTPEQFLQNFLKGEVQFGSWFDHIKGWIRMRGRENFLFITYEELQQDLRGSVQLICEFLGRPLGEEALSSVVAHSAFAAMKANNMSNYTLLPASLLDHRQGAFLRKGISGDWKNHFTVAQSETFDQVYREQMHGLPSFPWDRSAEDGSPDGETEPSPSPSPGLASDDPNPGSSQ
How it is done: as §1, §2, §3

The target in a further test is T4, hSULT1E1 (Homo sapiens, UniProt P49888).
T4 construct: made in house; host or cells: Salmonella typhimurium TA1538 (cytosolic fraction, not purified)
T4 sequence (P49888 1-294): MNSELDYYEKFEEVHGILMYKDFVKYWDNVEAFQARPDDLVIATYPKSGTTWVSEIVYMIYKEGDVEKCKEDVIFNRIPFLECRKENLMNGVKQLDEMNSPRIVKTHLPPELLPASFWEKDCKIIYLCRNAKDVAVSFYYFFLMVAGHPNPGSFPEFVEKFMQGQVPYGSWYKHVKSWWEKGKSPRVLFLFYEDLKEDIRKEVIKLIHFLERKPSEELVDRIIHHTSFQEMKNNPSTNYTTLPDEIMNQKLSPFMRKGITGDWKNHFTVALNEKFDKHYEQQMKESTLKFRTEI
How it is done: as §1, §2, §3

T1 sequence (P52847 whole entry): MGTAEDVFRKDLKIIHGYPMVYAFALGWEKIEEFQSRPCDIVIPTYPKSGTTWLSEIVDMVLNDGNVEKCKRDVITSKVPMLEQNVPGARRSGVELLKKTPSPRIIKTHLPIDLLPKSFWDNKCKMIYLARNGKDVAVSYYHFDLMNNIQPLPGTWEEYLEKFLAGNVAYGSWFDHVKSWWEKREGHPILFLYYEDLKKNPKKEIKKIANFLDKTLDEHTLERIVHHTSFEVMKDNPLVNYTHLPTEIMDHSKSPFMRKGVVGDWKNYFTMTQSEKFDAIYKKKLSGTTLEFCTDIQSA

Consider `O=Cc1ccc(CO)o1` [HMF, 5-Hydroxymethylfurfural], for which the Rate of sulfoconjugation was under 0.5 pmol/mg/min on rSult1b1 (0.1 mM HMF); 3.4 ± 0.2 pmol/mg/min at rSult1b1 (1 mM HMF); 25.2 ± 0.4 pmol/mg/min on rSult1b1 (10 mM HMF); 30.8 ± 1.2 pmol/mg/min on rSult1b1 (100 mM HMF); under 0.5 pmol/mg/min on hSULT2A1 (0.1 mM HMF); 2.4 ± 0.6 pmol/mg/min at hSULT2A1 (1 mM HMF). Also, the Rate of sulfoconjugation at hSULT2A1 (10 mM HMF) is listed as 31.1 ± 5.4 pmol/mg/min; on hSULT2A1 (100 mM HMF), 201 ± 39 pmol/mg/min; on rSult2b1 (0.1 mM HMF) it was under 0.5 pmol/mg/min; on rSult2b1 (1 mM HMF), under 0.5 pmol/mg/min; on rSult2b1 (10 mM HMF), under 0.5 pmol/mg/min; at rSult2b1 (100 mM HMF) it was under 0.5 pmol/mg/min. Further, the Rate of sulfoconjugation is under 0.5 pmol/mg/min on hSULT1E1 (0.1 mM HMF), 1.0 ± 0.2 pmol/mg/min on hSULT1E1 (1 mM HMF), 5.7 ± 0.8 pmol/mg/min at hSULT1E1 (10 mM HMF) and 7.7 ± 1.2 pmol/mg/min at hSULT1E1 (100 mM HMF). At rSult1b1 (HMF sulfoconjugation, Michaelis-Menten fit), the “K M” value worked out at 15.7 ± 0.9 mM.
